Results published in DBAASP.
≈ marks a conversion by molar mass, not a printed value.

Key:
Test in all cases: ≥ marks a high value that may be exact or a test limit, other limits are often not marked, values filed in µg/mL are converted to µM
[1] = test system: Candida albicans ATCC 2002
[2] = test system: Escherichia coli ATCC 25922
[3] = test system: Pseudomonas aeruginosa CMCCB 10104
[4] = test system: Staphylococcus aureus ATCC 25923
[5] = test system: Candida albicans ATCC 90028
[6] = test system: Escherichia coli ATCC 25726
[7] = test system: Klebsiella pneumoniae ATCC 700603
[8] = test system: Pseudomonas aeruginosa ATCC 27853

MIC [1] [µM]	MIC [2] [µM]	MIC [3] [µM]	MIC [4] [µM]	MIC [5] [µM]	MIC [6] [µM]	MIC [7] [µM]	MIC [8] [µM]	Structure (SMILES)
≥ 34.3	> 34.3	≥ 34.3	34.3 (≈ 100 µg/mL)					CC[C@H](C)[C@H](N)C(=O)N1CCC[C@H]1C(=O)N[C@@H](Cc1c[nH]c2ccccc12)C(=O)N[C@@H](CCCCN)C(=O)N[C@@H](CC(C)C)C(=O)N1CCC[C@H]1C(=O)N[C@@H](C)C(=O)N[C@H](C(=O)N[C@@H](Cc1ccccc1)C(=O)N[C@@H](CCCN=C(N)N)C(=O)N1CCC[C@H]1C(=O)N[C@H](C(=O)N[C@@H](CCC(=O)O)C(=O)N[C@@H](CCCN=C(N)N)C(=O)N1CCC[C@H]1C(=O)N[C@@H](Cc1ccccc1)C(=O)N[C@@H](CO)C(=O)N[C@@H](CCCCN)C(=O)N1CCC[C@H]1C(=O)N[C@@H](Cc1ccccc1)C(=O)N[C@@H](CS)C(=O)N[C@@H](CCCN=C(N)N)C(=O)N[C@@H](CCCCN)C(=O)N[C@@H](CC(=O)O)C(=O)O)C(C)C)[C@@H](C)O [IPWKLPATFRPVERPFSKPFCRKD]
0.266 (≈ 1.3 µg/mL)	0.512 (≈ 2.5 µg/mL)	0.512 (≈ 2.5 µg/mL)	0.266 (≈ 1.3 µg/mL)					CC[C@H](C)[C@H](NC(=O)CNC(=O)[C@H](CCCCN)NC(=O)CNC(=O)[C@H](CO)NC(=O)[C@H](Cc1ccccc1)NC(=O)[C@H](CCCCN)NC(=O)[C@H](CO)NC(=O)[C@H](Cc1ccccc1)NC(=O)[C@H](CC(C)C)NC(=O)CN)C(=O)N[C@@H](CCCCN)C(=O)N[C@@H](CC(N)=O)C(=O)N[C@@H](Cc1ccccc1)C(=O)N[C@@H](CC(C)C)C(=O)N[C@H](C(=O)N[C@@H](CCCCN)C(=O)NCC(=O)N[C@H](C(=O)N[C@@H](CCCCN)C(=O)N[C@@H](Cc1cnc[nH]1)C(=O)N[C@H](C(=O)NCC(=O)N[C@@H](CCCCN)C(=O)N[C@@H](CCC(=O)O)C(=O)N[C@H](C(=O)NCC(=O)N[C@@H](CCSC)C(=O)N[C@@H](CC(=O)O)C(=O)N[C@H](C(=O)N[C@H](C(=O)N[C@@H](CCCN=C(N)N)C(=O)N[C@H](C(=O)NCC(=O)N[C@H](C(=O)N[C@@H](CC(=O)O)C(=O)N[C@H](C(=O)N[C@@H](C)C(=O)NCC(=O)N[C@H]1CSSC[C@@H](C(=O)O)NC(=O)[C@H](CCC(=O)O)NC(=O)CNC(=O)[C@H](CCCCN)NC(=O)[C@H]([C@@H](C)CC)NC(=O)[C@H](CCCCN)NC1=O)C(C)C)[C@@H](C)CC)[C@@H](C)O)[C@@H](C)CC)C(C)C)C(C)C)[C@@H](C)CC)C(C)C)[C@@H](C)CC [GLFSKFSGKGIKNFLIKGVKHIGKEVGMDVIRTGIDVAGCKIKGEC]
			40 (≈ 119 µg/mL)	≥ 80	20 (≈ 59.5 µg/mL)	20 (≈ 59.5 µg/mL)	20 (≈ 59.5 µg/mL)	CC[C@H](C)[C@H](NC(=O)CNC(=O)[C@H](CCCCN)NC(=O)[C@H](C)NC(=O)[C@@H](NC(=O)[C@H](CCCCN)NC(=O)[C@H](CCCCN)NC(=O)[C@H](CC(C)C)NC(=O)[C@@H](NC(=O)[C@H](CC(=O)O)NC(=O)[C@H](CCCCN)NC(=O)[C@@H](NC(=O)[C@H](Cc1ccccc1)NC(=O)CNC(=O)[C@@H]1CCCN1C(=O)[C@@H](NC(=O)[C@H](CCCCN)NC(=O)[C@@H](N)CC(C)C)[C@@H](C)CC)C(C)C)[C@@H](C)O)C(C)C)C(=O)N[C@@H](Cc1ccccc1)C(=O)N[C@@H](CO)C(=O)N[C@@H](C)C(=O)N[C@H](C(=O)N[C@@H](C)C(=O)NCC(=O)N[C@@H](C)C(=O)N[C@@H](CCSC)C(=O)N[C@H](C(=O)N1CCC[C@H]1C(=O)N[C@@H](CO)C(=O)O)[C@@H](C)O)C(C)C [LKIPGFVKDTLKKVAKGIFSAVAGAMTPS]
